The values that follow come from US8642510B2, “Inhibitors for brassinosteroid signalling” (GMI-Gregor Mendel-Institut fuer Molekulare Pflanzenbiologie …, priority 2008, dated 2014).

Each structure is given as a SMILES string. “Also recorded” adds a separate entry of the source.

Series [1] is described as follows: Determination of pKa values. To be noted: pH5.8, the pH of the medium.
Experimental: Fifty to 100 mg compound were weighed and dissolved in 50 ml 50% (v/v) methanol. A titration curve with 50 mM NaOH as standard solution was recorded with a Greisinger electonics GPHR 1400A pH meter. The equivalence point was determined by the difference quotient method (ΔpH/ΔVNaOH) and the pKa read from the titration curve at 50% neutralisation.
The next series concerns cpd mutant seedlings. Description: Physiological test, phenotype rescue of brassinosteroid synthesis mutant cpd. The format is in vivo, Arabidopsis thaliana. To be noted: 30 μM in medium, 7 days. Here is the method:
(§1) FIG. 3: Effects on the phenotype of brassinosteroid mutants. 7-day-old seedlings of the brassinosteroid synthesis mutant cpd and signalling mutant bri1-1 were transferred to MS medium containing 1 μM epi-brassinolide (Epi-BL) or compounds 10 and 15 at a concentration of 30 μM and incubated for 7 days under long day conditions. All pictures were taken at the same magnification. The bar represents 1 mm.
(§2) Arabidopsis thaliana Co10 or bri1-1 seedlings were grown in vitro on ½ MS plates containing 1% sucrose in a growth camber under long day conditions (16 h light with 50 μE·m^−2·s^−1, 8 h dark) for 7 days. Subsequently, they were transferred to plates supplemented with inhibitors at different concentrations and effects on the phenotype were observed 7 days later.
(§3) Downregulation of ASK activity is crucial in brassinosteroid signalling. ASKs are constitutively active in cpd and bril-1 mutants, which are defective in brassinosteroid biosynthesis or signalling, respectively. This leads to severely dwarfed plants with dark green downward curled leaves and shortened hypocotyls. […] To screen for in vivo potency, cpd and bril-1 mutants were transferred to media containing 4-[(5-bromo-2-pyridinyl)amino]-4-oxobutanoic acid derivatives at a concentration of 30 μM. […] The potency to rescue the phenotype correlated with the results of the in vitro assay.

The test system of a further series is bri1-1 mutant seedlings. Description: Physiological test, phenotype rescue of brassinosteroid signalling mutant bri1-1. As to conditions: 30 μM in medium, 7 days. The format is in vivo, Arabidopsis thaliana. As for the experimental part: as §1, §2, §3
For series [2], the system named is ASKs (A. thaliana GSK-3/Shaggy-like kinases). Description: In vitro kinase assay, GST-ASK fusion proteins with MBP and γ-[32P]-ATP. Type of series: biochemical, Arabidopsis thaliana. To be noted: compounds at 10 μM; result in words. As for the experimental part:
GST-ASK fusion proteins were incubated with MBP as substrate and γ-[32P]-ATP as co-substrate in the absence (−) or presence of different derivatives (the numbers correspond to Table 1). […] The compounds were used at a concentration of 10 μM. The proteins were separated by SDS-PAGE and the incorporated radioactive phosphate detected with a storage phosphor imager screen.
ASKs were expressed as GST-fusion proteins in E. coli BL21. In vitro kinase assays were performed by incubating 50 ng GST-fusion protein, 10 μg myelin basic protein (MBP; Sigma, St Louis, Mo.) as substrate and 0.15 MBq γ-[32P]-ATP as co-substrate at 25° C. for 30 min. The reaction buffer consisted of 20 mM HEPES pH7.4, 15 mM MgCl2, 5 mM EGTA and 1 mM DTT. For initial experiments cold ATP was included at concentrations up to 3 μM. The reaction products were separated by SDS-PAGE and the amount of radioactivity incorporated into MBP quantified using an Amersham storage phosphor imager screen and a Biorad Molecular Imager FX. In vivo kinase activity was detected by phosphorylation band-shift assays using BZR1-CFP as substrate.
Representatives of all groups were expressed as recombinant GST fusion proteins in E. coli.

Series [3] can be described thus: HPLC-analysis of plant extracts (fate of compound in planta). The format is in vivo, A. thaliana. To be noted: seedlings infiltrated, HPLC of extracts after 15 min. Here is the method:
FIG. 5: Estrified compounds are rapidly hydrolysed in planta. A. thaliana seedlings were infiltrated with ½MS medium containing 50 μM compound 10. Control samples were taken before infiltration (A) and analysed by HPLC. A biotransformation product (marked P) of compound 10 could be observed after 15 min (B). A chromatogram of a mixture of compounds 10, 15, and 17 (labelled with C10, C15 and C17, respectively) is shown for comparison (C). The small boxes inserted into the chromatograms show the UV spectra of the peaks in the range of 220 to 360 nm. mAU, milli absorption units recorded at 250 nm.
Two-week-old A. thaliana Co10 seedlings were vacuum infiltrated with ½MS or ½MS containing […] compound 10 as described previously (Rozhon et al., 2005). After 15 min and after 48 h samples were taken, rinsed with water and ground in liquid nitrogen to a fine powder. 100 mg powder were weighed into a reaction tube and 1 ml extraction buffer (20 mM TRIS/HCl pH6.8 dissolved in 20% acetonitrile) was added. […] The extracts were analysed by HPLC with the same settings as mentioned above.
To investigate these conflicting results, the fate of compound 10 in vivo was investigated. Seedlings were infiltrated with compound 10 and plant extracts subsequently analysed by HPLC. […]

A further series has as its target T1, ASKζ (Arabidopsis thaliana, UniProt Q39010).
T1 construct: expressed in transfected cells; host or cells: A. thaliana protoplasts
T1 sequence (Q39010 1-412): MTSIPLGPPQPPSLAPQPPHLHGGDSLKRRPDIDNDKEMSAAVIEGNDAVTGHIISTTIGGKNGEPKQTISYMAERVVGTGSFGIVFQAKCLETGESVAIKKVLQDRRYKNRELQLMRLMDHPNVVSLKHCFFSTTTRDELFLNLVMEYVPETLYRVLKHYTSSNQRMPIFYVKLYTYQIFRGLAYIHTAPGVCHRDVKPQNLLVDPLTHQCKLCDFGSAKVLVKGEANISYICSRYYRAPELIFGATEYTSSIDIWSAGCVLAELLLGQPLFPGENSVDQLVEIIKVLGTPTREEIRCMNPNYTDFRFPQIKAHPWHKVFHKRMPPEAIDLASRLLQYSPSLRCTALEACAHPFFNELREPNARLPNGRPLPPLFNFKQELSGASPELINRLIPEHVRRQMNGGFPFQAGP
Nature of the series: In vivo kinase assay, BZR1-CFP phosphorylation band-shift in protoplasts. To be noted: protoplasts co-transformed with BZR1-CFP and Myc-tagged ASK; increasing concentrations. The format is cell-based, A. thaliana. The source says: A. thaliana protoplasts were co-transformed with expression constructs of BZR1-CFP and Myc-tagged ASKζ and treated with increasing concentrations of compounds 10 and 15. […] and ASKζ-Myc were detected by western blot analysis using polyclonal anti-GFP and monoclonal anti-Myc antibodies, respectively. A Coomassie R250 stain is shown as a loading control. Depending on the ASKζ kinase activity BZR1-CFP can be observed in a phosphorylated or unphosphorylated form (indicated by arrows). The ratio of the two ASKζ-Myc bands, indicating posttranslational modification of this protein, were not affected by inhibitor application.
ASKs were expressed as GST-fusion proteins in E. coli BL21. […] The reaction products were separated by SDS-PAGE and the amount of radioactivity incorporated into MBP quantified using an Amersham storage phosphor imager screen and a Biorad Molecular Imager FX. In vivo kinase activity was detected by phosphorylation band-shift assays using BZR1-CFP as substrate.
Because of this unexpected result, the effect of the inhibitions on the in vivo ASK activity was analysed by a direct method. […] Transformed protoplasts were incubated with different concentrations of compounds 10 and 15 and BZR1-CFP and […] and subsequently analysed by western blotting.

With `COC(=O)CCC(=O)Nc1ccc(I)cn1` [Compound 10, 4-[(5-iodopyrid-2-yl)amino]-4-oxobutanoic acid methyl ester], the “Portion undissociated / lipophilic, capable of diffusion through the membrane” value in series [1] is reported as 100%. For the same molecule, the “Rescue of cpd mutant phenotype” value in the series with cpd mutant seedlings is given as “highly active in vivo”. In addition, the “Rescue of bri1-1 mutant phenotype” value in the series with bri1-1 mutant seedlings is on record as “highly active in vivo”. Also, the “Inhibition of ASKs in vitro (MBP phosphorylation)” value in series [2] is “dramatically reduced inhibitory effects; also recorded: little potency in vitro; also recorded: little or no activity”. The “Stability in planta (hydrolysis of methyl ester to free acid)” value in series [3] was “not stable in vivo but rapidly converted; also recorded: rapidly cleaved off”. Further, the “Inhibition of in vivo ASK activity (BZR1-CFP phosphorylation shift)” value on ASKζ was “potent inhibitors in vivo; also recorded: highly active”.
